For one series, the system named is patients. The conditions noted are these: patients taking the drug; cited from earlier work.
Another series relates to C57BL/6 mice. The series is described as follows: Plasma metabolite levels in mice after a single 1 mg/kg oral gavage dose of NTBC (GC/MS and LC/MS/MS). The series is classed as in vivo. The conditions noted are these: single aqueous 1 mg/kg dose by oral gavage, plasma 6 h following dosing, male C57BL/6 mice. The method, then:
For example, six male C57BL/6 mice (20-25 gm, 8-9 weeks age) were administered a single aqueous 1 mg/kg dose of NTBC by oral gavage. Plasma samples were taken 6 h following dosing. […] We conclude that NTBC can be used to reduce plasma BCAA levels in mice. It should be noted that an early study reported that plasma BCAA levels were unaffected after dosing rats with 10 mg/kg NTBC for 11 weeks (Lock et al., 1996).
The dosing solutions were prepared the day of study dosing, approximately one hour prior to dosing. Compound 1 is nitisinone (also referred to herein as “NTBC”).
54 C56BL/6 mice were housed for at least 3 days prior to dosing and were fully acclimated at study start. All mice were ad libitum fed throughout the study. Water was given ad libitum throughout the holding and study periods. Body weight was measured prior to dosing. Dosing for Group 2 and 3 occurred once on the day of study.
Blood collection (approximately 600 μL) was into pre-chilled (0-4° C.) K3-EDTA containing polypropylene blood collection tubes. After blood collection, blood samples were maintained chilled (2-6° C.) and centrifuged within 30 minutes. […]
Samples were extracted and split into equal parts for analysis on GC/MS and LC/MS/MS platforms. Proprietary software was used to match ions to a library of standards for metabolite identification and for metabolite quantitation by peak area integration.

On to `CN(C)C(=N)N=C(N)N` [metformin], for which the “patients who suffer gastrointestinal side effects” value in the series with patients is recorded as “More than 60%”. `O=C1CCCC(=O)C1C(=O)c1ccc(C(F)(F)F)cc1[N+](=O)[O-]` [Compound 1, nitisinone]: the “reduction of plasma levels of valine, isoleucine and leucine (BCAAs)” value with C57BL/6 mice was “greater than 25%”.

These data come from US20150238441A1, “Modulation of Branched Amino Acid Concentrations to Treat Metabolic Diseases” (UNIVERSITY OF ROCHESTER, priority 2012, published 2015).
